Experimental data as given in patent publication US9067871B2, “Aminotetraline derivatives, pharmaceutical compositions containing them, and their use in therapy” (ABBVIE DEUTSCHLAND GMBH & CO KG, priority 2009, dated 2015).
Structures can show the parent of a compound that is named as a salt. Where two headings read alike, the source gives them in different places.

Tests used:
human GlyT1c = human GlyT1c (Homo sapiens (Human), UniProt P48067); test: [3H]-Glycine uptake into recombinant CHO cells expressing human GlyT1; format: cell-based
Sequence of human GlyT1c (P48067 whole entry): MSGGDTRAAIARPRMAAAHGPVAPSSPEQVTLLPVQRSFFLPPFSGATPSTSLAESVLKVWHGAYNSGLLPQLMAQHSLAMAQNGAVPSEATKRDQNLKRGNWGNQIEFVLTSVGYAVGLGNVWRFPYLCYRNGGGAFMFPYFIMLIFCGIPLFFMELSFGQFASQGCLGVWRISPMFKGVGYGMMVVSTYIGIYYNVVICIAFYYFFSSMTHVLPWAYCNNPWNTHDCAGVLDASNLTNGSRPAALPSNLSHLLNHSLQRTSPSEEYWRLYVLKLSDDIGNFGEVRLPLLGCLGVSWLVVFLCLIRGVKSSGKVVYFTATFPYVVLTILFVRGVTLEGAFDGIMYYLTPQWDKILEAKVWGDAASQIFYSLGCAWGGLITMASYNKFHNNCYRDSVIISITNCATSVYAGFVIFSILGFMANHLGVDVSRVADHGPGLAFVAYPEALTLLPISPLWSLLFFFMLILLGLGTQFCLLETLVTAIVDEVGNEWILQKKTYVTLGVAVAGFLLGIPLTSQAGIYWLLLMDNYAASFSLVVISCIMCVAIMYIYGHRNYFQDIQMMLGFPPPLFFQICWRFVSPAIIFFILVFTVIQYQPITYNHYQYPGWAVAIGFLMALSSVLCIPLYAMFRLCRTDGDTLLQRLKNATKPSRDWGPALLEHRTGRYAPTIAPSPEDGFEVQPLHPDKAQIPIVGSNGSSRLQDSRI
Outline: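 Recombinant CHO cells stably expressing hGlyT1c, grown 24 h to sub-confluency on scintillating plates, given inhibitor or vehicle plus 200 nM (final) [3H]-glycine in HBSS. Uptake counted continuously by solid-phase scintillation for up to 3 h; nonspecific uptake defined with 10 μM Org24598.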

human GlyT1c transporter = human GlyT1c transporter (Homo sapiens (Human), UniProt P48067); test: Radioligand binding assay using recombinant CHO cell membranes expressing human GlyT1; details: read-out: radioligand binding Kiapp
Sequence of human GlyT1c transporter (P48067 whole entry): as above
Text: 2. Radioligand binding assays using recombinant CHO cell membranes expressing human GlyT1: […]

[1] = hGlyT1c_5_CHO cells, 200 nM [3H]-glycine
[2] = human GlyT1c-expressing CHO cell membranes

IC50 (human GlyT1c; [1])	Ki (human GlyT1c transporter; [2])	Compound	IC50 (human GlyT1c)	Ki (human GlyT1c transporter)
≤ 10 µM	≤ 10 µM	CCOC(=O)NC1CCc2ccc(OCCNS(=O)(=O)c3cnc(C)[nH]3)cc2C1Cc1cccc(Cl)c1 (centres unmarked) [Example 52, {1-(3-Chloro-benzyl)-7-[2-(2-methyl-3H-imidazole-4-sulfonylamino)-ethoxy]-1,2,3,4-tetrahydro-naphthalen-2-yl}-carbamic acid ethyl ester]		
≤ 10 µM	≤ 1 µM	NC1CCc2ccc(OCCNS(=O)(=O)c3ccc(Cl)s3)cc2C1Cc1cccc(Cl)c1 (centres unmarked) [Example 59, 5-Chloro-thiophene-2-sulfonic acid {2-[7-amino-8-(3-chloro-benzyl)-5,6,7,8-tetrahydronaphthalen-2-yloxy]-ethyl}-amide]		
≤ 1000 µM	≤ 10 µM	CCOC(=O)NC1CCc2ccc(OCCNS(=O)(=O)c3ccc(C)s3)cc2C1Cc1ccc(Cl)cc1Cl (centres unmarked) [Example 64, {1-(2,4-Dichloro-benzyl)-7-[2-(5-methyl-thiophene-2-sulfonylamino)-ethoxy]-1,2,3,4-tetrahydro-naphthalen-2-yl}-carbamic acid ethyl ester]		
≤ 1 µM	≤ 0.1 µM	Cc1csc(S(=O)(=O)NCCOc2ccc3c(c2)C(Cc2cccc(Cl)c2)C(N)CC3)c1 (centres unmarked) [Example 67, 4-Methyl-thiophene-2-sulfonic acid {2-[7-amino-8-(3-chloro-benzyl)-5,6,7,8-tetrahydronaphthalen-2-yloxy]-ethyl}-amide hydrochloride]		
≤ 100 µM	≥ 100 µM	NC1CCc2ccc(O)cc2C1Cc1ccc(Cl)c(Cl)c1 (centres unmarked) [Example 35, 7-Amino-8-(3,4-dichlorobenzyl)-5,6,7,8-tetrahydronaphthalen-2-ol trifluoroacetate (salt)]		
≤ 1 µM	≤ 0.1 µM	CCCS(=O)(=O)NCCOc1ccc2c(c1)C(Cc1ccc(Cl)c(Cl)c1)C(N(C)C)CC2 (centres unmarked) [Example 6]		
≤ 1000 µM	≤ 10 µM	CCOC(=O)NC1CCc2ccc(OCCNS(=O)(=O)CCC(F)(F)F)cc2C1Cc1ccc(Cl)c(Cl)c1 (centres unmarked) [Example 26, {1-(3,4-Dichloro-benzyl)-7-[2-(3,3,3-trifluoro-propane-1-sulfonylamino)-ethoxy]-1,2,3,4-tetrahydro-naphthalen-2-yl}-carbamic acid ethyl ester]		
		Cc1csc(S(=O)(=O)NCCOc2ccc3c(c2)C(Cc2ccc(Cl)c(Cl)c2)C(N)CC3)c1 (centres unmarked) [Example 24, 4-Methyl-thiophene-2-sulfonic acid {2-[7-amino-8-(3,4-dichloro-benzyl)-5,6,7,8-tetrahydronaphthalen-2-yloxy]-ethyl}-amide hydrochloride]	≤ 10 µM	≤ 0.1 µM
≤ 1 µM	≤ 0.1 µM	CCCS(=O)(=O)N1CCC[C@@H]1COc1ccc2c(c1)C(Cc1cccc(Cl)c1)C(N)CC2 (stereo partly drawn) [Example 82, 1-(3-Chloro-benzyl)-7-[(R)-1-(propane-1-sulfonyl)-pyrrolidin-2-ylmethoxy]-1,2,3,4-tetrahydro-naphthalen-2-ylamine hydrochloride]		
		CCCS(=O)(=O)NCCOc1ccc2c(c1)C(Cc1ccc(Cl)c(Cl)c1)C(N)CC2 (centres unmarked) [Example 8, Propane-1-sulfonic acid {2-[7-amino-8-(3,4-dichloro-benzyl)-5,6,7,8-tetrahydronaphthalen-2-yloxy]-ethyl}-amide hydrochloride]	≤ 0.1 µM	≤ 0.1 µM
≤ 1 µM	≤ 1 µM	CCOC(=O)NC1CCc2ccc(OCCNS(=O)(=O)c3cn(C)cn3)cc2C1Cc1cccc(Cl)c1 (centres unmarked) [Example 80, {1-(3-Chloro-benzyl)-7-[2-(1-methyl-1H-imidazole-4-sulfonylamino)-ethoxy]-1,2,3,4-tetrahydro-naphthalen-2-yl}-carbamic acid ethyl ester]		
		CCCS(=O)(=O)NCCOc1ccc2c(c1)C(Cc1cccc(Cl)c1)C(N)CC2 (centres unmarked) [Example 55, Propane-1-sulfonic acid {2-[7-amino-8-(3-chloro-benzyl)-5,6,7,8-tetrahydro-naphthalen-2-yloxy]-ethyl}-amide hydrochloride]	≤ 0.1 µM	≤ 0.01 µM
≤ 1 µM	≤ 0.1 µM	CCCS(=O)(=O)N(C)CCOc1ccc2c(c1)C(Cc1cccc(Cl)c1)C(N)CC2 (centres unmarked) [Example 79, Propane-1-sulfonic acid {2-[7-amino-8-(3-chloro-benzyl)-5,6,7,8-tetrahydronaphthalen-2-yloxy]-ethyl}-methyl-amide hydrochloride]		
≤ 10 µM	≤ 10 µM	CCCS(=O)(=O)NCCOc1ccc2c(c1)C(Cc1ccc(Cl)c(Cl)c1)C(NC(=O)OCC)CC2 (centres unmarked) [Example 7]		
≤ 100 µM	≤ 10 µM	CCOC(=O)NC1CCc2ccc(C#N)cc2C1Cc1ccc(Cl)c(Cl)c1 (centres unmarked) [Example 32, Ethyl [7-cyano-1-(3,4-dichlorobenzyl)-1,2,3,4-tetrahydronaphthalen-2-yl]carbamate]		
		CCn1cc(S(=O)(=O)NCCOc2ccc3c(c2)C(Cc2cccc(Cl)c2)C(N)CC3)cn1 (centres unmarked) [Example 66, 1-Ethyl-1H-pyrazole-4-sulfonic acid {2-[7-amino-8-(3-chloro-benzyl)-5,6,7,8-tetrahydronaphthalen-2-yloxy]-ethyl}-amide hydrochloride]	≤ 1 µM	≤ 0.1 µM
≤ 10 µM	≤ 10 µM	NC1CCc2ccc(OCCNS(=O)(=O)c3cccs3)cc2C1Cc1ccc(Cl)cc1Cl (centres unmarked) [Example 72, Thiophene-2-sulfonic acid {2-[7-amino-8-(2,4-dichloro-benzyl)-5,6,7,8-tetrahydronaphthalen-2-yloxy]-ethyl}-amide hydrochloride]		
≤ 1 µM	≤ 1 µM	CCOC(=O)NC1CCc2ccc(OCCNS(=O)(=O)c3cnn(C)c3)cc2C1Cc1ccc(Cl)c(Cl)c1 (centres unmarked) [Example 9, {1-(3,4-Dichloro-benzyl)-7-[2-(1-methyl-1H-pyrazole-4-sulfonylamino)-ethoxy]-1,2,3,4-tetrahydro-naphthalen-2-yl}-carbamic acid ethyl ester]		
≤ 1 µM	≤ 1 µM	NC1CCc2ccc(OCCNS(=O)(=O)c3cccnc3)cc2C1Cc1ccc(Cl)c(Cl)c1 (centres unmarked) [Example 5, Pyridine-3-sulfonic acid {2-[7-amino-8-(3,4-dichloro-benzyl)-5,6,7,8-tetrahydro-naphthalen-2-yloxy]-ethyl}-amide hydrochloride]		
≤ 10 µM	≤ 1 µM	Cc1ccc(S(=O)(=O)NCCOc2ccc3c(c2)C(Cc2ccc(Cl)cc2Cl)C(N)CC3)s1 (centres unmarked) [Example 73, 5-Methyl-thiophene-2-sulfonic acid {2-[7-amino-8-(2,4-dichloro-benzyl)-5,6,7,8-tetrahydronaphthalen-2-yloxy]-ethyl}-amide hydrochloride]		
≤ 100 µM	≤ 100 µM	CCOC(=O)NC1CCc2ccc(OCCNS(=O)(=O)c3sc(C)nc3C)cc2C1Cc1cccc(Cl)c1 (centres unmarked) [Example 49, {1-(3-Chloro-benzyl)-7-[2-(2,4-dimethyl-thiazole-5-sulfonylamino)-ethoxy]-1,2,3,4-tetrahydro-naphthalen-2-yl}-carbamic acid ethyl ester]		
≤ 1 µM	≤ 0.1 µM	CCCS(=O)(=O)N(C)CCOc1ccc2c(c1)C(Cc1ccc(Cl)cc1)C(N)CC2 (centres unmarked) [Example 77, Propane-1-sulfonic acid {2-[7-amino-8-(4-chloro-benzyl)-5,6,7,8-tetrahydro-naphthalen-2-yloxy]-ethyl}-methyl-amide hydrochloride]		
≤ 1000 µM	≤ 100 µM	CCOC(=O)NC1CCc2ccc(OCCNS(=O)(=O)c3ccccc3)cc2C1Cc1ccc(Cl)c(Cl)c1 (centres unmarked) [Example 13, [7-(2-Benzenesulfonylamino-ethoxy)-1-(3,4-dichloro-benzyl)-1,2,3,4-tetrahydronaphthalen-2-yl]-carbamic acid ethyl ester]		
≤ 10 µM	≤ 1 µM	Cc1cc(S(=O)(=O)NCCOc2ccc3c(c2)C(Cc2cccc(Cl)c2)C(N)CC3)c(C)s1 (centres unmarked) [Example 69, 2,5-Dimethyl-thiophene-3-sulfonic acid {2-[7-amino-8-(3-chloro-benzyl)-5,6,7,8-tetrahydronaphthalen-2-yloxy]-ethyl}-amide hydrochloride]		
		CS(=O)(=O)NCCOc1ccc2c(c1)C(Cc1ccc(Cl)c(Cl)c1)C(N)CC2 (centres unmarked) [Example 15, N-{2-[7-Amino-8-(3,4-dichloro-benzyl)-5,6,7,8-tetrahydro-naphthalen-2-yloxy]-ethyl}-methanesulfonamide hydrochloride]	≤ 1 µM	≤ 1 µM
≤ 100 µM	≤ 10 µM	NC1CCc2ccc(OCCNS(=O)(=O)C3CCNC3)cc2C1Cc1ccc(Cl)c(Cl)c1 (centres unmarked) [Example 19, Pyrrolidine-3-sulfonic acid {2-[7-amino-8-(3,4-dichloro-benzyl)-5,6,7,8-tetrahydronaphthalen-2-yloxy]-ethyl}-amide hydrochloride]		

Compound	IC50 (human GlyT1c; [1])	Ki (human GlyT1c transporter; [2])	IC50 (human GlyT1c)	Ki (human GlyT1c transporter)
Cn1cnc(S(=O)(=O)NCCOc2ccc3c(c2)C(Cc2ccc(Cl)cc2)C(N)CC3)c1 (centres unmarked) [Example 27, 1-Methyl-1H-imidazole-4-sulfonic acid {2-[7-amino-8-(4-chloro-benzyl)-5,6,7,8-tetrahydronaphthalen-2-yloxy]-ethyl}-amide hydrochloride]	≤ 0.01 µM	≤ 0.01 µM		
Cn1cc(S(=O)(=O)NCCOc2ccc3c(c2)C(Cc2ccc(Cl)c(Cl)c2)C(N)CC3)cn1 (centres unmarked) [Example 4, 1-Methyl-1H-pyrazole-4-sulfonic acid {2-[7-amino-8-(3,4-dichloro-benzyl)-5,6,7,8-tetrahydro-naphthalen-2-yloxy]-ethyl}-amide hydrochloride]	≤ 0.01 µM	≤ 0.01 µM		
